# Tests used:
# L. major promastigotes [1] = system: L. major promastigotes; parameters: method as in PMID 24473204; conditions: positive control; cited from earlier work
# [2] = AlamarBlue cytotoxicity, BMDM; type: cell-based; conditions: bone marrow-derived macrophages (BMDM)
# Method: BMDM were generated in complete RPMI medium as described previously. On day six, the cytotoxicity against 2 × 10^5 cells/ml was tested at increasing concentrations of compounds 1 and 2 for 48 h. Human embryonic kidney HEK 293 T cells (ATCC, Wesel, Germany) were cultured in Dulbecco´s Modified Eagle Medium (DMEM) (Life Technologies, Darmstadt, Germany), with 10% FCS (PAA Laboratories, Germany). According to the standard operating procedures (SOP) within the Collaborative Research Center 630 (SFB 630) 2 × 10^4 HEK 293 T cells/ml were tested at increasing concentrations of compounds 1 and 2 for 48 h. Human liver carcinoma HepG2 cells (ATCC) were cultured in RPMI medium (Gibco) with 10% FCS. 1 × 10^5 cells/ml HepG2 were tested at increasing concentrations of 1 and 2 for 72 h according to the SOPs. The AlamarBlue assay was performed as described above for L. major parasites.
# L. major promastigotes [3] = assay: Diff-Quik staining and transmitted light microscopy, cell morphology; type: cell-based, Leishmania major; conditions: 122.7 μM
# Method: (§1) L. major parasites harvested from blood agar cultures were washed twice with Dulbecco’s phosphate-buffered saline (DPBS; Invitrogen, Darmstadt, Germany) and centrifuged at 3.000 × g for 10 min. The pellet was suspended in RPMI 1640 medium at a final concentration of 1 × 10^8 cells/ml. Cells were treated with 1% DMSO, 122.7 μM miltefosine (1-hexadecylphorylcholine; apoptosis inducer), or 100 μM of the tested compounds 1 and 2 in a final volume of 200 μl in 96 well plates. Samples were incubated at 27°C in 5% CO2 for several time points between 30 min and 24 h. Transmitted light microscopic, transmission electron microscopic (TEM), and flow cytometric techniques were used to find phenotypic patterns caused by the treatment with the tested compounds.
# After incubation for 30 min, 1 h, 2 h, 4 h, and 24 h in the presence of the tested compounds 1 and 2, promastigotes were harvested and centrifuged in a Cytospin 3 centrifuge (Shandon, Frankfurt, Germany) on microscope slides at 253 × g for 5 min at room temperature (RT). Cytospin preparations of cells were stained using the Differential Quick Stain (Diff-Quik) dye (Medion Diagnostics AG, Duedingen, Switzerland), according to the manufacturers’ protocol with some modifications. Diff-Quik stains the leishmanial nuclei and the kinetoplasts dark purple and the cytoplasm light purple allowing the observation of phenotypic changes within the parasite. Briefly, air-dried cells were fixed by dipping the slides 5 times for 3 seconds in fixative solution. Subsequently the slides were stained with Solution I following Solution II (from Diff-Quik kit) and air-dried between each staining steps. Finally, the samples were rapidly dipped once in ultra-pure water (produced by a TKA purification system apparatus, Niederelbert, Germany) to remove excessive staining solutions. The air-dried cells were analyzed by transmitted light microscopy under a 50× objective on a Nikon ECLIPSE 50i microscope equipped with a digital camera (Nikon, Tokyo, Japan). The images were processed using NIS Elements D software (Nikon).
# L. major promastigotes [4] = assay: Annexin V / propidium iodide flow cytometry, cell death phenotype; type: cell-based, Leishmania major; conditions: 122.7 μM
# Method: as §1
# The loss of membrane integrity and translocation of phosphatidylserine (PS) to the outside of the cellular membrane can be determined by annexin V (AV) and propidium iodide (PI) staining. Double staining with AV-fluorescein isothiocyanate (FITC) and PI during flow cytometry analysis leads to discrimination between four populations: double negatives or alive cells (AV^-/PI^-), double positive or late necrotic/late apoptotic cells (AV^+/PI^+), PI-positive and AV-negative or early necrotic cells (AV^-/PI^+), and PI-negative and AV-positive or early apoptotic cells (AV^+/PI^-).
# Parasites were harvested after incubation for 6 h, 10 h, and 24 h in the presence of compounds 1, 2 and miltefosine (Cayman Chemical Company, MI, USA), respectively, the latter serving as positive control for the induction of apoptotic cell death. DMSO was used as solvent control. Cell staining was performed using an AV-FITC Apoptosis detection kit (Sigma-Aldrich, Saint Louis, MO, USA). Cells were harvested, washed and suspended in 500 μL of binding buffer, 5 μL of AV-FITC and 10 μl of PI. The cells were incubated for 10 min in the dark at RT. Finally, stained samples were immediately analyzed by flow cytometry using MACSQuant analyzer or a flow cytometer (Becton Dickinson, San José, CA, USA).
# L. major amastigotes = system: L. major amastigotes; parameters: method as in PMID 24473204; conditions: positive control; cited from earlier work
# L. major promastigotes [5] = system: L. major promastigotes; parameters: method as in PMID 25834987; conditions: cited from earlier work
structure (smiles),measurement,setting,value
"CCCCCCCCCCCCCCCCOP(=O)([O-])OCC[N+](C)(C)C [Miltefosine, 1-hexadecylphorylcholine, reference compound]",IC50,L. major promastigotes [1],36.2 µM
same,IC50 at 48 h,[2],65.5 µM
same,Time after which morphological changes and cell disruption were promoted,L. major promastigotes [3],2 h
same,LL: live cells (AV-/PI-),L. major promastigotes [4]; 6 h,35.5%
same,LR: early apoptotic cells (AV+/PI-),L. major promastigotes [4]; 6 h,8.2%
same,UL: early necrotic cells (AV-/PI+),L. major promastigotes [4]; 6 h,11.8%
same,UR: necrotic/late apoptotic cells (AV+/PI+),L. major promastigotes [4]; 6 h,44.5%
same,LR: early apoptotic cells (AV+/PI-),"L. major promastigotes [4]; 6 h, listed as miltefosine",8%
same,UR: necrotic/late apoptotic cells (AV+/PI+),"L. major promastigotes [4]; 6 h, listed as miltefosine",45%
same,LL: live cells (AV-/PI-),L. major promastigotes [4]; 10 h,15.9%
same,LR: early apoptotic cells (AV+/PI-),L. major promastigotes [4]; 10 h,13.2%
same,UL: early necrotic cells (AV-/PI+),L. major promastigotes [4]; 10 h,11.3%
same,UR: necrotic/late apoptotic cells (AV+/PI+),L. major promastigotes [4]; 10 h,59.6%
same,LL: live cells (AV-/PI-),L. major promastigotes [4]; 24 h,6.3%
same,LR: early apoptotic cells (AV+/PI-),L. major promastigotes [4]; 24 h,13.0%
same,UL: early necrotic cells (AV-/PI+),L. major promastigotes [4]; 24 h,5.5%
same,UR: necrotic/late apoptotic cells (AV+/PI+),L. major promastigotes [4]; 24 h,75.2%
same,LR: early apoptotic cells (AV+/PI-),"L. major promastigotes [4]; 24 h, listed as miltefosine",13%
same,UR: necrotic/late apoptotic cells (AV+/PI+),"L. major promastigotes [4]; 24 h, listed as miltefosine",75%
same,Promastigotes with affinity of the parasitic surface towards AV,L. major promastigotes [4]; within 24 h,88%
same,IC50,L. major amastigotes,33 µM
CC1(C)C2CCC1(C)C(OC(=O)/C=C/c1ccc(O)c(O)c1)C2 (stereo not shown) [caffeic acid bornyl ester],Antileishmanial activity against L. major promastigotes,L. major promastigotes [5],good antileishmanial activity

# Reference: paper PMC4640567, “Cinnamic Acid Bornyl Ester Derivatives from Valeriana wallichii Exhibit Antileishmanial In Vivo Activity in Leishmania major-Infected BALB/c Mice” (PLoS ONE, 2015)
